# Measured values reported in patent EP1145714A1, “DRUGS” (Takeda Chemical Industries, Ltd., priority 1998, dated 2000).
# Tests used:
# [1] = test system: acute and delayed vomiting induced by cisplatin in ferrets; test: Acute and delayed vomiting induced by cisplatin in ferrets, oral dosing once or twice daily; type: in vivo; conditions: cisplatin 5 mg/kg i.p.; for Duration (in hour; mean ± SD) / Latency (in hour; mean ± SD) / On day 0 (0-24 hours): frequency of retching and vomiting (mean ± SD) / On day 0 (0-24 hours): number of ferrets with vomiting/ number of tested ferrets / On days 1-2(24-48 hours): frequency of retching and vomiting (mean ± SD) / On days 1-2(24-48 hours): number of ferrets with vomiting/ number of tested ferrets / Total frequency of retching and vomiting (on days 0~2; 0-72 hours): twice daily, under fasting
# Experimental: Male 4 to 6 ferrets (1.2 to 2.2 kg) per one group were used. Cisplatin was intraperitoneally given at 5 mg/5ml/kg. 30 minutes prior to cisplatin administration and 24 and 48 hours after cisplatin administration, predetermined doses of the compound No. 3 were orally given in case of dosing once daily. 30 minutes prior to cisplatin administration and 12, 24, 36, 48 and 60 hours after cisplatin administration, predetermined doses of the compound No. 3 were orally given in case of dosing twice daily. 30 minutes prior to the dosing of the compound No. 3, a small amount of a feed was given to the animals in any of the cases. Similarly, a predetermined volume of 0.5 % methyl cellulose solution was similarly given orally to a control animal group under no fasting. A predetermined dose of ondansetron was orally given to the animals under fasting. To a control animal group of ondansetron, a predetermined volume of physiological saline was orally given to the animals under fasting. The frequency of vomiting was counted in number, up to 72 hours after cisplatin administration.
# The compound No. 3 was suspended in 0.5 % methyl cellulose solution, for oral dosing at predetermined doses at a ratio of 1 ml per 1 kg body weight. An injection of ondansetron at 0.2 w/v % concentration was orally given at a predetermined volume. Additionally, 0.5 % methyl cellulose solution was orally given at a ratio of 1 ml per 1 kg body weight, while physiological saline was orally given at a ratio of 0.5 to 1.5 ml per 1 kg body weight. The data relating to the frequency of vomiting, the time period (latency) until first vomiting and the time period from the occurrence of vomiting to the termination thereof were statistically analyzed by the Dunnett test, with reference to the difference from the control group.
# The acute vomiting suppression ratio, delayed vomiting suppression ratio and total vomiting suppression ratio were calculated by the following formula. [Frequency of retching or vomiting in control] - [Frequency of retching or vomiting in animals dosed with compound No. 3] / [Frequency of retching or vomiting in control] x 100 (%) [formula]
# [2] = test system: acute vomiting induced by a central emetic agent loperamide in dogs; test: Acute vomiting induced by loperamide in dogs; type: in vivo, beagle dogs; conditions: 10 mg/kg p.o., loperamide 1 mg/kg subcutaneous
# Experimental: 3 male or female beagle dogs (7.7 to 12.7 kg) per one group were used. Loperamide was subcutaneously given at 1 mg/ml/kg. 2.5 hours prior to loperamide administration, a small amount of a feed was given to the animals. 30 minutes thereafter, predetermined doses of the compound No. 3 were orally given. Similarly, 0.5 % methyl cellulose solution was orally given to a control animal group under no fasting. Predetermined doses of naloxone and ondansetron were given intravenously and orally, respectively to the animals under fasting, 30 minutes prior to loperamide administration. The frequency of vomiting was counted, up to 3 hours after loperamide administration. The compound No. 3 was dissolved in 0.5 % methyl cellulose solution, for oral dosing at a ratio of 0.25 to 1 ml per 1 kg body weight. Additionally, naloxone was intravenously given in a solution at a concentration of 0.05 % w/v. An injection of ondansetron at a concentration of 0.2 % w/v was orally given. Still additionally, 0.5 % methyl cellulose solution was orally given at a ratio of 1 ml per 1 kg body weight. The data relating to the frequency of vomiting, the latency and the time period from the occurrence of vomiting to the termination thereof were statistically analyzed by the Dunnett test, with reference to the difference from the control group.
# The vomiting suppression ratio was calculated by the following formula. [Frequency of retching or vomiting in control] - [Frequency of retching or vomiting in animals dosed with compound No. 3] / [frequency of retching or vomiting in control] x 100 (%) [formula]
smiles,measurement,setting,value
"Cc1nccn1CC1CCc2c(c3ccccc3n2C)C1=O (centres unmarked) [Ondansetron, ondansetron, reference compound]",Acute vomiting suppression ratio (0 to 24 hours after cisplatin dosing),[1]; 1 mg/kg p.o. twice daily,0 % NS
same,Delayed vomiting suppression ratio (24 to 72 hours after cisplatin dosing),[1]; 1 mg/kg p.o. twice daily,0 % NS
same,Total vomiting suppression ratio (0 to 72 hours after cisplatin dosing),[1]; 1 mg/kg p.o. twice daily,0 % NS
same,Duration (in hour; mean ± SD),[1]; 1 mg/kg × 2 p.o.,56.5 ± 2.6 h
same,Latency (in hour; mean ± SD),[1]; 1 mg/kg × 2 p.o.,8.7 ± 0.9 h
same,On day 0 (0-24 hours): frequency of retching and vomiting (mean ± SD),[1]; 1 mg/kg × 2 p.o.,70.2 ± 25.2
same,On day 0 (0-24 hours): number of ferrets with vomiting/ number of tested ferrets,[1]; 1 mg/kg × 2 p.o.,5/5
same,On days 1-2(24-48 hours): frequency of retching and vomiting (mean ± SD),[1]; 1 mg/kg × 2 p.o.,327.4 ± 88.8
same,On days 1-2(24-48 hours): number of ferrets with vomiting/ number of tested ferrets,[1]; 1 mg/kg × 2 p.o.,5/5
same,Total frequency of retching and vomiting (on days 0~2; 0-72 hours),[1]; 1 mg/kg × 2 p.o.,397.6 ± 72.0
same,Acute vomiting suppression ratio (0 to 24 hours after cisplatin dosing),[1]; 3 mg/kg p.o. twice daily,58 % NS
same,Delayed vomiting suppression ratio (24 to 72 hours after cisplatin dosing),[1]; 3 mg/kg p.o. twice daily,32 % NS
same,Total vomiting suppression ratio (0 to 72 hours after cisplatin dosing),[1]; 3 mg/kg p.o. twice daily,36 % NS
same,Duration (in hour; mean ± SD),[1]; 3 mg/kg × 2 p.o.,44.2 ± 8.4 h
same,Latency (in hour; mean ± SD),[1]; 3 mg/kg × 2 p.o.,15.7 ± 5.6 h
same,On day 0 (0-24 hours): frequency of retching and vomiting (mean ± SD),[1]; 3 mg/kg × 2 p.o.,27.8 ± 13.1
same,On day 0 (0-24 hours): number of ferrets with vomiting/ number of tested ferrets,[1]; 3 mg/kg × 2 p.o.,4/6
same,On days 1-2(24-48 hours): frequency of retching and vomiting (mean ± SD),[1]; 3 mg/kg × 2 p.o.,221.7 ± 62.9
same,On days 1-2(24-48 hours): number of ferrets with vomiting/ number of tested ferrets,[1]; 3 mg/kg × 2 p.o.,6/6
same,Total frequency of retching and vomiting (on days 0~2; 0-72 hours),[1]; 3 mg/kg × 2 p.o.,249.5 ± 74.2
same,Effect on vomiting (in words),[2],did not suppress
same,Vomiting suppression ratio,[2],3 % NS
same,B: Frequency of vomiting (mean ± SD),[2]; 3 hours,9.7 ± 2.7
same,C: Time period until first vomiting (minute; mean ± SD),[2]; 3 hours,0.50 ± 0.14 min
same,D: Duration of vomiting (minute; mean ± SD),[2]; 3 hours,1.30 ± 0.11 min
same,Number of dogs with vomiting/number of tested dogs,[2]; 3 hours,3/3
